Results published in patent US20250154169A1, “COMPOUNDS AND METHODS FOR MODULATING SPLICING” (REMIX THERAPEUTICS INC., priority 2021, published 2025).

Assays:
[1] = tested on: HTT mRNA; assay: Splicing RT-qPCR assay, HTT canonical (CJ) and alternative (AJ) junction mRNA; assay type: cell-based, human; details: Homo sapiens, A673 or K562 cells, 24 hours compound treatment; for IC50: 24 h, read-out: HTT CJ (IC50, decrease in canonical junction mRNA); for AC50: read-out: HTT AJ (AC50, increase in alternative junction mRNA)
Protocol: (§1) Compounds described herein were used to modulate RNA transcript abundance in cells. The expression of a target mRNA was measured by detecting the formation of an exon-exon junction in the canonical transcript (CJ). A compound mediated exon-inclusion event was detected by observing an increase in formation of a new junction with an alternative exon (AJ). Real-time qPCR assays were used to detect these splicing switches and interrogate the potency of various compounds towards different target genes. A high-throughput real time quantitative PCR (RT-qPCR) assay was developed to measure these two isoforms of the mRNA (CJ and AJ) for exemplary genes, such as HTT, SMN2, and MYB, together with a control housekeeping gene, GAPDH or GUSB or PPIA, used for normalization. Briefly, the A673 or K562 cell line was treated with various compounds described herein (e.g., compounds of Formula (I)). After treatment, the levels of the HTT, MYB, or SMN2 mRNA targets were determined from each sample of cell lysate by cDNA synthesis followed by qPCR.
(§2) • Cells-to-CT 1-step kit: ThermoFisher A25602, Cells-to-CT lysis reagent: ThermoFisher 4391851C, TaqMan™ Fast Virus 1-Step Master Mix: ThermoFisher 4444436 • GAPDH: VIC-PL, ThermoFisher 4326317E (Assay: Hs99999905_m1)—used for K562/suspension cell lines • GUSB: VIC-PL, ThermoFisher 4326320E (Assay: Hs99999908_m1)—used for K562/suspension cell lines • PPIA: VIC-PL, ThermoFisher 4326316E (Assay: Hs99999904_m1)—used for A673/adherent cell lines
(§3) The A673 cell line was cultured in DMEM with 10% FBS. Cells were diluted with full growth media and plated in a 96-well plate (15,000 cells in 100 ul media per well). The plate was incubated at 37° C. with 5% CO2 for 24 hours to allow cells to adhere. An 11-point 3-fold serial dilution of the compounds was made in DMSO then diluted in media in an intermediate plate. Compounds were transferred from the intermediate plate to the cell plate with the top dose at a final concentration of 10 uM in the well. Final DMSO concentration was kept at or below 0.25%. The cell plate was returned to the incubator at 37° C. with 5% CO2 for an additional 24 hours.
(§4) The K562 cell line was cultured in IMDM with 10% FBS. For K562, cells were diluted with full growth media and plated in either a 96-well plate (50,000 cells in 50 uL media per well) or a 384-well plate (8,000-40,000 cells in 45 uL media per well). An 11-point 3-fold serial dilution of the compounds were made in DMSO then diluted in media in an intermediate plate. Compound was transferred from the intermediate plate to the cell plate with the top dose at a final concentration of 10 uM in the well. Final DMSO concentration was kept at or below 0.25%. Final volume was 100 uL for 96-well plate and 50 uL for 384-well plate. The cell plate was then placed in an incubator at 37° C. with 5% CO2 for 24 hours.
(§5) The cells were then gently washed with 50 uL-100 uL cold PBS before proceeding to addition of lysis buffer. 30 uL-50 uL of room temperature lysis buffer with DNAse I (and optionally RNAsin) was added to each well. Cells were shaken/mixed thoroughly at room temperature for 5-10 minutes for lysis to take place and then 3 uL-5 uL of room temperature stop solution was added and wells were shaken/mixed again. After 2-5 minutes, the cell lysate plate was transferred to ice for RT-qPCR reaction setup. The lysates could also be frozen at −80° C. for later use.
(§6) In some cases, a direct lysis buffer was used. An appropriate volume of 3× lysis buffer (10 mM Tris, 150 mM NaCl, 1.5%-2.5% Igepal and 0.1-1 U/uL RNAsin, pH 7.4) was directly added to either K562 or A673 cells in media and mixed by pipetting 3 times. The plates were then incubated at room temperature with shaking/rocking for 20-50 minutes to allow for lysis to take place. After this time, the cell lysate plate was transferred to ice to set up for the RT-qPCR reactions. The lysates could also be frozen at −80° C. for later use. […]

[2] = tested on: MYB mRNA; assay: Splicing RT-qPCR assay, MYB canonical (CJ) and alternative (AJ) junction mRNA; assay type: cell-based, human; details: Homo sapiens, 24 h, A673 or K562 cells, 24 hours compound treatment, RT-qPCR; for AC50: read-out: MYB AJ (AC50, increase in alternative junction mRNA); for IC50: read-out: MYB CJ (IC50, decrease in canonical junction mRNA)
Protocol: as §1, §2, §3, §4, §5, §6

| Structure (SMILES) | IC50 [1] [µM] | IC50 [2] [nM] | AC50 [1] [µM] | AC50 [2] [nM] |
| --- | --- | --- | --- | --- |
| Cc1nnc2ccc(NC(=O)c3ccc(N4CCNCC4)c4cn(C)nc34)cn12 [Compound 488, 2-methyl-N-{3-methyl-[1,2,4]triazolo[4,3-a]pyridin-6-yl}-4-(piperazin-1-yl) indazole-7-carboxamide] | > 10 | > 10000 | > 10 | > 10000 |
| C=Cn1cc2c(N3CCC(NCC)CC3)ccc(C(=O)Nc3cc(F)c4nc(C)cn4c3)c2n1 [Compound 503, 2-ethenyl-4-[4-(ethylamino)piperidin-1-yl]-N-{8-fluoro-2-methylimidazo[1,2-a]pyridin-6-yl}indazole-7-carboxamide] | 0.1 to 1 | < 100 | < 0.1 | < 100 |
| C=CCN[C@@H]1CCN(c2ccc(C(=O)Nc3cc(F)c4nc(C)cn4c3)c3nn(C)cc23)C1 [Compound 554, N-{8-fluoro-2-methylimidazo[1,2-a]pyridin-6-yl}-2-methyl-4-[(3R)-3-(prop-2-en-1-ylamino)pyrrolidin-1-yl]indazole-7-carboxamide] | > 10 | 100 to 1000 | > 10 | < 100 |
| CCn1cc2c(C3CCNC3)ccc(C(=O)Nc3cc(F)c4nccn4c3)c2n1 (stereo not drawn) [Compound 526, 2-ethyl-N-{8-fluoroimidazo[1,2-a]pyridin-6-yl}-4-(pyrrolidin-3-yl) indazole-7-carboxamide] | > 10 | 1000 to 10000 | > 10 | 1000 to 10000 |
| Cc1cn2cc(NC(=O)c3ccc(N4CC[C@@H](NC5CC(O)C5)C4)c4cn(C)nc34)cc(F)c2n1 (stereo partly drawn) [Compound 602] | 1 to 10 | < 100 | 1 to 10 | 100 to 1000 |
| CCn1cc2c(N3CC[C@@H](NC)C3)cc(F)c(C(=O)Nc3cc(F)c4nc(C)cn4c3)c2n1 [Compound 479, 2-ethyl-6-fluoro-N-{8-fluoro-2-methylimidazo[1,2-a]pyridin-6-yl}-4-[(3R)-3-(methylamino)pyrrolidin-1-yl]indazole-7-carboxamide; trifluoroacetic acid] | 1 to 10 | < 100 | 1 to 10 | < 100 |
| Cc1cn2cc(NC(=O)c3ccc(N4CC[C@@H](N5C[C@@H](C)N[C@@H](C)C5)C4)c4cn(C)nc34)cc(F)c2n1 [Compound 621, 4-[(3R)-3-[(3R,5S)-3,5-dimethylpiperazin-1-yl]pyrrolidin-1-yl]-N-{8-fluoro-2-methylimidazo[1,2-a]pyridin-6-yl}-2-methylindazole-7-carboxamide] | > 10 | 1000 to 10000 | > 10 | 100 to 1000 |
| Cc1cn2cc(NC(=O)c3ccc(N4CCNCC4)c4c[nH]nc34)cc(F)c2n1 [Compound 490, N-{8-fluoro-2-methylimidazo[1,2-a]pyridin-6-yl}-4-(piperazin-1-yl)-2H-indazole-7-carboxamide] | > 10 | 1000 to 10000 | > 10 | 1000 to 10000 |
| Cc1nc2cc(NC(=O)c3ccc(N4CCNCC4)c4cn(C)nc34)ccn2n1 [Compound 489, 2-methyl-N-{2-methyl-[1,2,4]triazolo[1,5-a]pyridin-7-yl}-4-(piperazin-1-yl) indazole-7-carboxamide] | > 10 | > 10000 | > 10 | > 10000 |
| CCn1cc2c(N3CC[C@@H](N(C)C)C3)cc(Cl)c(C(=O)Nc3cc(F)c4nc(C)cn4c3)c2n1 [Compound 619, 6-chloro-4-[(3R)-3-(dimethylamino)pyrrolidin-1-yl]-2-ethyl-N-{8-fluoro-2-methylimidazo[1,2-a]pyridin-6-yl}indazole-7-carboxamide] | > 10 | 100 to 1000 | > 10 | 100 to 1000 |
| Cc1cn2cc(NC(=O)c3ccc(N4CCNCC4)c4cn(C5CCC5)nc34)cc(F)c2n1 [Compound 391, 2-cyclobutyl-N-{8-fluoro-2-methylimidazo[1,2-a]pyridin-6-yl}-4-(piperazin-1-yl) indazole-7-carboxamide] | > 10 | < 100 | 1 to 10 | 100 to 1000 |

Now from value to compound, other results behind:

| IC50 [1] [µM] | IC50 [2] [nM] | Structure (SMILES) | AC50 [1] [µM] | AC50 [2] [nM] |
| --- | --- | --- | --- | --- |
| 1 to 10 | 100 to 1000 | CCn1cc2c(N3CCC(NCC4(O)CC4)CC3)ccc(C(=O)Nc3cc(F)c4nc(C)cn4c3)c2n1 [Compound 576, 2-ethyl-N-{8-fluoro-2-methylimidazo[1,2-a]pyridin-6-yl}-4-(4-{[(1-hydroxycyclopropyl)methyl]amino}piperidin-1-yl) indazole-7-carboxamide] | > 10 | 100 to 1000 |
| 1 to 10 | 100 to 1000 | Cc1cn2cc(NC(=O)c3ccc(N4CC[C@@H](NC5C6COCC65)C4)c4cn(C)nc34)cc(F)c2n1 (stereo partly drawn) [Compound 633] | > 10 | 100 to 1000 |
| 0.1 to 1 | < 100 | CCn1cc2c(N3CCC4(CC3)CCN4C)ccc(C(=O)Nc3cc(F)c4nc(C)cn4c3)c2n1 [Compound 401, 2-ethyl-N-(8-fluoro-2-methylimidazo[1,2-a]pyridin-6-yl)-4-(1-methyl-1,7-diazaspiro[3.5]nonan-7-yl)-2H-indazole-7-carboxamide 2,2,2-trifluoroacetate] | 0.1 to 1 | < 100 |
| 1 to 10 | 100 to 1000 | Cc1cn2cc(NC(=O)c3ccc(N4CCN[C@H](C5CC5)C4)c4cn(C)nc34)cc(F)c2n1 [Compound 607, 4-[(3R)-3-cyclopropylpiperazin-1-yl]-N-{8-fluoro-2-methylimidazo[1,2-a]pyridin-6-yl}-2-methylindazole-7-carboxamide] | 1 to 10 | 100 to 1000 |
| < 0.1 | < 100 | CCn1cc2c(N3CCC(CC)(N(C)C)CC3)ccc(C(=O)Nc3cc(F)c4nc(C)cn4c3)c2n1 [Compound 508, 4-[4-(dimethylamino)-4-ethylpiperidin-1-yl]-2-ethyl-N-{8-fluoro-2-methylimidazo[1,2-a]pyridin-6-yl}indazole-7-carboxamide] | 0.1 to 1 | < 100 |
| 0.1 to 1 | < 100 | Cc1cn2cc(NC(=O)c3ccc(N4CCC(N)CC4)c4cn(C)nc34)cc(F)c2n1 [Compound 402, 4-(4-aminopiperidin-1-yl)-N-{8-fluoro-2-methylimidazo[1,2-a]pyridin-6-yl}-2-methylindazole-7-carboxamide] | 0.1 to 1 | < 100 |
| 1 to 10 | 1000 to 10000 | CN[C@@H]1CCN(c2ccc(C(=O)Nc3nc(OC)c4nn(C)cc4n3)c3nn(C)cc23)C1 [Compound 624, N-{7-methoxy-2-methylpyrazolo[4,3-d]pyrimidin-5-yl}-2-methyl-4-[(3R)-3-(methylamino)pyrrolidin-1-yl]indazole-7-carboxamide] | 1 to 10 | 1000 to 10000 |
